Experimental data taken from ChEMBL document CHEMBL5365479, “Development of Potent and Selective Coactivator-Associated Arginine Methyltransferase 1 (CARM1) Degraders” (J Med Chem, 2023).

Tested on: MCF-10A
Assay: Cytotoxicity against human MCF-10A cells assessed as reduction in cell viability at 0.5 uM incubated for 7 days by high contrast bright field microscopic analysis
Assay type: toxicity, cell-based
Conditions: 168 h, time 7 day

Which Activity does the source give for CNCCN1CCC(c2cc(CN(C)C(=O)c3cccc(Oc4ccc(OCC(=O)N5CCC(CN6CCC(CN7CCN(CC(=O)N[C@H](C(=O)N8C[C@H](O)C[C@H]8C(=O)N[C@@H](C)c8ccc(-c9scnc9C)cc8)C(C)(C)C)CC7)CC6)CC5)cc4)c3)ccn2)CC1 here?
The Activity was “Non-Toxic”.
